Measurements as given in US7427625B2, “Substituted thiatriazaacenaphthylene-6-carbonitrile kinase inhibitors” (Janssen Pharmaceutica, N.V., priority 2006, dated 2008).

Experiments:
Aurora-A = molecular target: T1, Aurora-A (Mus musculus, UniProt P97477); test: Aurora-A Screening Assay; assay type: biochemical, murine; details: for inhibition at 1 µM: test concentration of 1 μM, read-out: Aurora-A percent inhibition
T1 construct: followed by the full length protein encoding the murine Aurora-A; polyhistidine (N); made in house; host or cells: sf9 insect cells
T1 sequence (P97477 1-395): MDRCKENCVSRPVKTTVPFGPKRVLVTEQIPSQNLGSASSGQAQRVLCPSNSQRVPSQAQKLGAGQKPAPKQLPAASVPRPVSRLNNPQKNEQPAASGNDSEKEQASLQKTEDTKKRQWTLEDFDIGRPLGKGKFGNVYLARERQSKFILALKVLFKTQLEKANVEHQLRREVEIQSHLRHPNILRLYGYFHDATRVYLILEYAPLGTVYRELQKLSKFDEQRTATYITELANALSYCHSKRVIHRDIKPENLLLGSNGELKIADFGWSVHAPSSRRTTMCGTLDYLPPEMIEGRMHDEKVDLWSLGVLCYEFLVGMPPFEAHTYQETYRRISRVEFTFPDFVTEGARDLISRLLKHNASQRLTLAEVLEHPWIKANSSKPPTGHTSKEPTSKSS
Protocol: (§1) A kinase reaction mixture was prepared containing 50 mM Tris-HCl at pH 8, 10 mM, MgCl20.1 mM […], 1 mM DTT, 10 μM ATP, 0.025 μM biotinylated histone-H1 peptide substrate and 0.2 μCuries per well ^33P-γ-ATP (2000-3000 Ci/mmol). 70 μL of the kinase reaction mixture was dispensed into the well of a Streptavidin FlashPlate.
(§2) Test compound stock in 100% DMSO (1 μL) was added to the wells resulting in a final concentration of 1% DMSO in the reaction with a 100 μL final reaction volume. Each enzyme was diluted in 50 mM Tris-HCl pH=8.0, 0.1% BSA and 30 μL was added to each well to initiate the reaction. The reaction was incubated for one hour at 30° C. At the end of the 1 hr incubation, the reaction was terminated by aspirating the mixture from the plate and washing the wells twice with PBS containing 100 mM EDTA. The biotinylated peptide substrate became immobilized on the Flashplate^198 and the incorporation of ^33P-γ-ATP was measured by reading the plate on a scintillation counter. Inhibition of the enzymatic activity was measured by observing a reduced amount of ^33P-γ-ATP incorporated into the immobilized peptide.
Aurora-A is a fusion protein containing a polyhistidine tag at the N terminus followed by the full length protein encoding the murine Aurora-A (Accession number GB BC014711) expressed and purified from sf9 insect cells. The assay used 400 ng of the N-terminal biotinylated peptide biotin-GRTGRRNSI-amide (Aurora-A) per well.
(§3) The IC50 was derived according to the procedure described in Example 2. For those compounds without an IC50, the percent inhibition results are shown at a test concentration of 1 μM.

EGFR = molecular target: T2, EGFR (Homo sapiens, UniProt P00533); test: EGFR Kinase Assay; assay type: biochemical; details: for inhibition at 2 µM: test concentration of 2 μM, read-out: EGFR percent inhibition
T2 construct: The intracellular portion of EGFR started at nucleotide 2189 (corresponding to amino acid 667) and ended at the termination codon; made in house; host or cells: Sf9 insect cells (baculovirus)
From the text: The EGFR kinase used was a fusion of Glutathione-S-Transferase (GST) and a PCR amplified intracellular portion of EGFR (NM_005228). The intracellular portion of EGFR started at nucleotide 2189 (corresponding to amino acid 667) and ended at the termination codon. The portion was PCR amplified with primers that added the lambda attB sequences to each end, recombined into an entry vector, then into a GST destination vector (as described in Gateway Technologies Manual by Invitrogen Corporation, Carlsbad, Calif.).
The destination vector was recombined in the DH10BAC strain of bacteria to produce a bacmid. The bacmid was transfected into Sf 9 cells and the supernatant containing the baculovirus was collected. The GSTEGFR protein was purified using large cultures of Sf 9 cells infected with stock virus. After an appropriate period of time, the cells were collected and lysed. The GSTEGFR was then purified from the lysate on Glutathione-Sepharose columns (as described by Amersham Biosciences, Buckinghamshire, United Kingdom).
The EGFR substrate was prepared by biotinylating polyGluTyr (128 mg) (Sigma, St. Louis, Mo.) in a 1×PBS buffer incubated together with a 12-fold molar excess of Sulfo-NHS-LC-Biotin on ice for at least 2 hrs. The free biotin was separated from the biotinylated polyGluTyr on a gel filtration column.
A mixture of a 10× kinase buffer (500 mM Tris at pH 8.0, 100 mM Magnesium Chloride and 1 mM Sodium Vanadate), DTT (1 mM final from 500 mM stock), ATP (5 μM final from 10 mM stock), biotinylated polyGluTyr (10 μg/μL stock), γ-^33P ATP (10 μCi/μL stock) and water was added to each well (90 μL/well) of a Streptavidin Flashplate (Perkin Elmer, Wellesley, Mass.).
Test compound in 100% DMSO (2 μL) was added to the appropriate wells. Diluted GSTEGFR (1:300 dilution in 50 mM Tris at pH 8.0 and 0.1% bovine serum albumin) (10 μL) was added to the wells to initiate the reactions.
The plates were incubated at 30° C. for 1 hr with shaking. The reacted contents were removed and the plates were sequentially washed three times with a 1×PBS stop buffer (300 μL without Magnesium and Calcium) and 100 mM EDTA. After the final wash, the same stop buffer (200 μL) was added to the wells. The plates were then sealed and read on the TopCount scintillation counter.
Test compounds were assayed in triplicate at 16 concentrations at half-log dilutions starting at 200 uM. A maximum and minimum signal for the assay was determined on each plate. The percent inhibition of a test compound was calculated according to the formula
For a series of test concentrations, the IC50 was derived by graphing percent inhibition against the log of the concentrations tested for a given compound. For those compounds without an IC50, the percent inhibition results are shown at a test concentration of 2 μM.

VEGF-R2 = molecular target: T3, VEGF-R2 (Rattus norvegicus, UniProt O08775); test: VEGF-R2 Screening Assay; assay type: biochemical; details: for inhibition at 1 µM: test concentration of 1 μM, read-out: VEGF-R2 percent inhibition
T3 construct: polyhistidine (N)
Protocol: as §1, §2
The VEGF-R2 enzyme is a fusion protein containing a polyhistidine tag at the N terminus followed by amino acids 786 to 1343 of the rat VEGF-R2 kinase domain (Accession number U93306). The assay used 150 ng of the N-terminal biotinylated peptide biotin-KHKKLAEGSAYEEV-amide (VEGF-R2) per well.
as §3

HER-2 = molecular target: T4, HER-2 (Homo sapiens, UniProt P04626); test: HER-2 Kinase Assay; assay type: biochemical; details: for inhibition at 1 µM: test concentration of 1 μM, read-out: HER-2 percent inhibition
T4 construct: the nucleotides encoding amino acids 679 to 1255 of HER-2; purchased Proqinase (Freiburg, Germany)
Protocol: HER-2 kinase was purified at Proqinase (Freiburg, Germany) from a construct that consisted of a fusion of GST (Glutathione-S-Transferase), HIS6-Thrombin and the nucleotides encoding amino acids 679 to 1255 of HER-2.
A mixture of a 10× kinase reaction buffer (600 mM Hepes at pH 7.5, 30 mM Magnesium Chloride, 0.03 mM Sodium Vanadate and 500 μg/mL PEG 20,000), DTT (1.2 mM final from a 10 mM stock), ATP (1 μM from a 10 mM stock), biotinylated polyGluTyr (1.5 ng/μL final from stock of 1 μg/μL prepared by Upstate Biotechnologies, Lake Placid, N.Y.), Manganese Chloride (3 mM final from a 1 M stock), γ-^33P-ATP (10 μCi/μL stock) and water (70 μL/well) was added to each well of a Streptavidin Flashplate (Cat. #SMP103, NEN, Boston, Mass.).
Test compound stock (1 μL) was added to the appropriate wells. Diluted GSTHER2 kinase (6.7 ng/μL diluted into 50 mM Tris-HCl at pH 8.0 and 0.1% bovine serum albumin) (30 μL) was added (total volume of 200 ng/well) to initiate the reactions.
The reaction plates were incubated at 30° C. for 1 hr. The reaction was terminated by aspiring the reaction mixture from the plate wells and washing the wells three times with a 1×PBS stop buffer (300 μL) and 100 mM EDTA. After the final wash, the same stop buffer (200 μL) was again added to the wells. The plates were then sealed and read on the TopCount scintillation counter.
as §3

T3 sequence (O08775 786-1343): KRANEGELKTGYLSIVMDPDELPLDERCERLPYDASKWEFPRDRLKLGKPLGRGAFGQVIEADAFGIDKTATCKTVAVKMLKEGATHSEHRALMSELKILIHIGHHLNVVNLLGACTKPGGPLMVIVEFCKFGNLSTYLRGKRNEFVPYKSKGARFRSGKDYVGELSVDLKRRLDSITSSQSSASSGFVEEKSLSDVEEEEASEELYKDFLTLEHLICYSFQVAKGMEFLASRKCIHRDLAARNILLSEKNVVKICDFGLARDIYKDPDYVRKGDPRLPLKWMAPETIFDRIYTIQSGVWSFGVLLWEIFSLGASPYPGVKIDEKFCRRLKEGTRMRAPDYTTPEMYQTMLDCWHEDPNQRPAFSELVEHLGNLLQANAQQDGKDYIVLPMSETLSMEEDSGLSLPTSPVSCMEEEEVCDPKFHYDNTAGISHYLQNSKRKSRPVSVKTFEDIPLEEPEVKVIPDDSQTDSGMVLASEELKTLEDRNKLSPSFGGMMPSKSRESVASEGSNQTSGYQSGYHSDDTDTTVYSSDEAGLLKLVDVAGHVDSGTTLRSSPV
T4 sequence (P04626 679-1255): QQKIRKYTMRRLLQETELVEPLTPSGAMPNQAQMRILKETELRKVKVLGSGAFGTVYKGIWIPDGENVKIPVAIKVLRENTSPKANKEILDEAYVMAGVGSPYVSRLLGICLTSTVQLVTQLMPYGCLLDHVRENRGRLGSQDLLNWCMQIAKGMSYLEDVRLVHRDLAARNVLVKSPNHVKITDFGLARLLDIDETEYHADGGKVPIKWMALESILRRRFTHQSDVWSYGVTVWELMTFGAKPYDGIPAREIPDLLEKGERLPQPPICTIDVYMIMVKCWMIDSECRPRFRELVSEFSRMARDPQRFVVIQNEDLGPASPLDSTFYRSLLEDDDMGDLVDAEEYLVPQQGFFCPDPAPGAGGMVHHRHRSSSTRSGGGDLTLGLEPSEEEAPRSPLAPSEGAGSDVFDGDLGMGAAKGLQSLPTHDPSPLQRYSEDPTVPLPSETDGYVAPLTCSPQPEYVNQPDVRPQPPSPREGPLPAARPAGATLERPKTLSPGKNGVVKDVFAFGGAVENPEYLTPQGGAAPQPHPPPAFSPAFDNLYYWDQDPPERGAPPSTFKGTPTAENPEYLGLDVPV
T2 sequence (P00533 669-1210 limits assumed): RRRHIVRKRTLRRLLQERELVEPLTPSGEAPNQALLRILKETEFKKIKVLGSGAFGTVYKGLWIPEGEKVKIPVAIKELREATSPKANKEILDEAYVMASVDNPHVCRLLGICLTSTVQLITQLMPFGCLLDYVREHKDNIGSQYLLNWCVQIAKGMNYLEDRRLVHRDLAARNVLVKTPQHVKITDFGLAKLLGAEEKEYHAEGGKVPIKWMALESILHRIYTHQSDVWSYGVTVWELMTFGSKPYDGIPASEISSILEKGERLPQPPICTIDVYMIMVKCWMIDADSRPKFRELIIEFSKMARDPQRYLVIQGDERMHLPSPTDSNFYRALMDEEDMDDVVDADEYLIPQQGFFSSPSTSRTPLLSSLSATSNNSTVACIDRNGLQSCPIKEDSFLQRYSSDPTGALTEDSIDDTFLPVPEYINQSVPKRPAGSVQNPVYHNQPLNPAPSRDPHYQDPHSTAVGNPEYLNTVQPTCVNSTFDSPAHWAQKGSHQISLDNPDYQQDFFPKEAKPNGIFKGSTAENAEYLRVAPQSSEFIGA

| inhibition at 1 µM (Aurora-A) [%] | inhibition at 2 µM (EGFR) [%] | inhibition at 1 µM (VEGF-R2) [%] | inhibition at 1 µM (HER-2) [%] | IC50 (Aurora-A) [µM] | IC50 (EGFR) [µM] | IC50 (VEGF-R2) [µM] | IC50 (HER-2) [µM] | SMILES |
| --- | --- | --- | --- | --- | --- | --- | --- | --- |
| 3 | 10 | -22 | 11 | – | – | – | – | N#Cc1cnc2sc(C(=O)Nc3ccccn3)c3c2c1N(c1c(Cl)ccc2c1OCO2)C(=O)N3 [Cpd 37, 5-(5-chloro-benzo[1,3]dioxol-4-yl)-6-cyano-4-oxo-4,5-dihydro-3H-1-thia-3,5,8-triaza-acenaphthylene-2-carboxylic acid pyridin-2-ylamide] |
| 4 | 13 | 2 | 0 | – | – | – | – | CC(C)(CO)NC(=O)c1sc2ncc(C#N)c3c2c1NC(=O)N3c1c(Cl)ccc2c1OCO2 [Cpd 38, 5-(5-chloro-benzo[1,3]dioxol-4-yl)-6-cyano-4-oxo-4,5-dihydro-3H-1-thia-3,5,8-triaza-acenaphthylene-2-carboxylic acid (2-hydroxy-1,1-dimethyl-ethyl)-amide] |
| 15 | 26 | 9 | 0 | – | – | – | – | Cn1ccc(NC(=O)c2sc3ncc(C#N)c4c3c2NC(=O)N4c2c(Cl)ccc3c2OCO3)n1 [Cpd 39, 5-(5-chloro-benzo[1,3]dioxol-4-yl)-6-cyano-4-oxo-4,5-dihydro-3H-1-thia-3,5,8-triaza-acenaphthylene-2-carboxylic acid (1-methyl-1H-pyrazol-3-yl)-amide] |
| 15 | 30 | 9 | 0 | – | – | – | – | N#Cc1cnc2sc(C(=O)Nc3ccncc3)c3c2c1N(c1c(Cl)ccc2c1OCO2)C(=O)N3 [Cpd 40, 5-(5-chloro-benzo[1,3]dioxol-4-yl)-6-cyano-4-oxo-4,5-dihydro-3H-1-thia-3,5,8-triaza-acenaphthylene-2-carboxylic acid pyridin-4-ylamide] |
| – | – | – | – | > 100 | 0.514 | > 100 | 1.87 | N#Cc1cnc2sc(C(=O)Nc3ccc(CN4CCC(N)CC4)cc3)c3c2c1N(c1c(Cl)ccc2c1OCO2)C(=O)N3 [Cpd 47, 5-(5-chloro-benzo[1,3]dioxol-4-yl)-6-cyano-4-oxo-4,5-dihydro-3H-1-thia-3,5,8-triaza-acenaphthylene-2-carboxylic acid [4-(4-amino-piperidin-1-ylmethyl)-phenyl]-amide] |
| – | – | – | – | > 100 | 0.124 | > 10 | 2.2 | N#Cc1cnc2sc(C(=O)Nc3ccc(CN4CCOCC4)cc3)c3c2c1N(c1ccc(Oc2ccccc2)cc1)C(=O)N3 [Cpd 50, 6-cyano-4-oxo-5-(4-phenoxy-phenyl)-4,5-dihydro-3H-1-thia-3,5,8-triaza-acenaphthylene-2-carboxylic acid (4-morpholin-4-ylmethyl-phenyl)-amide] |
| – | 48 | – | – | > 100 | – | > 100 | > 10 | COC1CCN(Cc2ccc(NC(=O)c3sc4ncc(C#N)c5c4c3NC(=O)N5c3ccc(Oc4ccccc4)cc3)cc2)CC1 [Cpd 51, 6-cyano-4-oxo-5-(4-phenoxy-phenyl)-4,5-dihydro-3H-1-thia-3,5,8-triaza-acenaphthylene-2-carboxylic acid [4-(4-methoxy-piperidin-1-ylmethyl)-phenyl]-amide] |
| – | – | – | – | > 100 | 0.0169 | > 100 | > 10 | CCOC(=O)c1sc2nc(O)c(C#N)c3c2c1NC(=O)N3c1ccc(Oc2ccccc2)cc1 [Cpd 52, 6-cyano-7-hydroxy-4-oxo-5-(4-phenoxy-phenyl)-4,5-dihydro-3H-1-thia-3,5,8-triaza-acenaphthylene-2-carboxylic acid ethyl ester] |
| – | 2 | – | – | > 100 | – | > 100 | > 100 | CCOC(=O)c1sc2nc(Cl)c(C#N)c3c2c1NC(=O)N3c1ccc(Oc2ccccc2)cc1 [Cpd 53, 7-chloro-6-cyano-4-oxo-5-(4-phenoxy-phenyl)-4,5-dihydro-3H-1-thia-3,5,8-triaza-acenaphthylene-2-carboxylic acid ethyl ester] |
| – | 11 | – | – | 15.3 | – | 12.3 | 3.37 | N#Cc1cnc2sc(C(=O)Nc3ccc(CN4CCC(F)(F)CC4)cc3)c3c2c1N(c1c(Cl)ccc2c1OCO2)C(=O)N3 [Cpd 54, 5-(5-chloro-benzo[1,3]dioxol-4-yl)-6-cyano-4-oxo-4,5-dihydro-3H-1-thia-3,5,8-triaza-acenaphthylene-2-carboxylic acid [4-(4,4-difluoro-piperidin-1-ylmethyl)-phenyl]-amide] |
